Test results taken from US11484529B2, “Desmethylanethole trithione derivatives for the treatment of diseases linked to mitochondrial reactive oxygen species (ROS) production” (OP2 Drugs, priority 2017, dated 2022).

Assays:
[1] = tested on: diet-induced obese (DIO) mice; experiment: Chronic treatment in diet-induced obese mice (body weight, body composition, ITT, glucose); assay type: in vivo, mouse; conditions: for AUC of glucose during ITT: mean±SEM, vehicle 12812.50±750.35
Experimental: The aim of the study was to determine whether the compound AOL, administered daily at the doses of 5 mg/kg and 10 mg/kg for up to five weeks by intraperitoneal (i.p.) daily administration in diet-induced obese (DIO) mice fed with a high-fat diet (HFD), modifies food intake, body weight, adiposity and glucose metabolism.
Mice were fed ad libitum with a HFD (60% of calories from fat, mostly lard) for twelve weeks before the pharmacological study begun. Animals received AOL or its vehicle by intraperitoneal (i.p.) administration and were maintained on HFD for the length of the study. Food intake and body weight were measured daily and recorded for up to three consecutive weeks.
Thirty 7-weeks-old male C57/B16J mice arrived to the laboratory on 25 Feb. 2016 and underwent a first in vivo body composition analysis (Echo MRI 900, EchoMRI Systems) after 1 week of adaptation to the experimental housing room. After this first MRI analysis, animals were fed a high-fat diet (HFD) ad libitum for a period of twelve weeks. Thereafter, they underwent a second MRI analysis and were distributed into 3 experimental groups of equivalent body weight and body composition.
Once the pharmacological treatment started (day 1), food intake (FI) and body weight (BW) were measured daily before the dark phase in animals housed in their home cage. Spillage of food was checked daily. The food consumed was calculated by subtracting the food left in the hoppers from the initial pre-weighted amount. FI and BW were measured for three consecutive weeks. Afterwards animals underwent a third MRI analysis in order to observe potential effects of the treatment onto the body composition (changes in fat and lean mass), followed by a glucose tolerance test (GTT) and an insulin tolerance test (ITT). Mice received daily i.p. administration of AOL or its vehicle for a total length of five weeks, until they were sacrificed.
A nuclear echo magnetic resonance imaging whole-body composition analyzer (Echo MRI 900; EchoMedical Systems) was used to repeatedly assess body fat and lean mass in conscious mice.
Animals were injected i.p. with 1.5 g/kg of D-Glucose (Sigma-Aldrich) for the GTT or with 0.5 U/kg of insulin (Humulin, Lilly, France) for the ITT. For the GTT and the ITT, animals were fasted overnight. The tests were conducted the following morning. Blood samples were taken from the tail vein at different time points (0, 15, 30, 60, 90 and 120 minutes after the i.p. administration of glucose or insulin) and glucose concentration was measured using glucose sticks (OneTouch Vita, Lifescan France, Issy les Moulineaux, France).
At sacrifice, blood samples were collected, blood glucose was rapidly assessed using glucose sticks and blood samples were then centrifuged at 3000 rpm for 15 minutes. The obtained plasma was stored at −80° C. for subsequent measurement of insulin, which was carried out by performing an ELISA (kit from Mercodia, Uppsala, Sweden), according to the manufacturer's instructions.

site IQ = experiment: ROS/H2O2 production, site targeted individually (96-well Amplex Red), 10 mM succinate alone; assay type: biochemical, rat; conditions: 0 to 80 μM; effect at concentrations as low as 2.5 μM
Experimental: After freshly isolating mitochondria from rat heart, then measuring protein quantity of the mitochondrial suspension, H2O2 production in response to the exogenous addition of increasing concentrations of AOL, AOX and Oltipraz was measured fluorimetrically with Amplex Red and horseradish peroxidase (HRP).
The two major sites of mitochondrial ROS/H2O2 production were targeted individually using the combination of succinate (energy substrate of respiratory complex 2) and known inhibitors of respiratory chain, namely for site IQ, 10 mM succinate alone (CCCP as positive control) and for site IIIQouter, 10 mM succinate, 4 μM rotenone and 2.5 μM antimycin A (myxothiazol as positive control). These “reaction” solutions were designed to generate maximal rates of ROS/H2O2 production predominantly from a single site within the chain (Quinlan et al. 2013. Redox Biol. 1:304-12).
For measurement, a working solution of 50 μM Amplex red reagent and 20 μg/ml HRP was mixed to the reaction buffer into the corresponding wells of a 96-well plate (Greiner 96 F-bottom), in the absence or presence of increasing concentrations (from 0 to 80 μM) of AOL, AOX or Oltipraz. Addition of mitochondria to a final concentration of 0.125 mg/mL per well initiated the assay. The appropriate total volume per microplate well was 200 μL.
Plates were incubated in the dark at room temperature for 20-25 minutes. A double orbital shaking (100 rpm-3 seconds) was applied before reading the endpoint fluorescence values on a CLARIOstar plate reader (BMG LABTECH GmbH, Germany). In fact, H2O2 reacts with Amplex Red in a 1:1 stoichiometry, yielding the fluorescent compound resorufin that was analyzed using the following optic settings (excitation wavelength at 546-20 nm; emission at 600-40 nm; gain: 750).
Also, an H2O2 standard curve, with concentrations ranging from 0 to 5 μM, was prepared in the experimental buffer that consisted in (in mM): 140 sucrose, 100 KCl, 1 EGTA, 20 MgCl2, 10 KH2PO4, and 1 g/L (w/v) BSA essentially fatty acid free (pH 7.2). […]

Compound	effect on body weight ([1]; 5 and 10 mg/kg i.p. daily, HFD, three weeks)	AUC of glucose during ITT ([1]; AOL 5 mg/kg)	action of insulin on circulating glucose levels during an ITT ([1]; AOL 10 mg/kg)	AUC of glucose during ITT ([1]; AOL 10 mg/kg)	blood glucose levels ([1]; after five weeks of treatment, 2-hour fasted mice)	lean mass ([1]; after three weeks of chronic administration)	fat mass ([1]; after three weeks of chronic administration, p=0.13)	body weight and food intake ([1]; chronic daily administration, data not shown)	inhibition of ROS production in site IQ (site IQ)
COc1ccc(-c2cc(=S)ss2)cc1 [AOL, 5-(4-methoxyphenyl)-3H-1,2-dithiole-3-thione]	did not have a significant effect	15006.56±1139.69	significantly blunted the action of insulin	18168.33±1562.90	tended to decrease blood glucose levels	did not have any effect on lean mass	tended to reduce fat mass	tended to decrease body weight and food intake	strongly inhibit the ROS production by complex I
Oc1ccc(-c2cc(=S)ss2)cc1 [AOX, 5-(4-hydroxyphenyl)-3H-1,2-dithiole-3-thione]	–	–	–	–	–	–	–	–	strongly inhibit the ROS production by complex I
